The source of these data is patent US20070161645A1, “Thiazole inhibitors targeting resistant kinase mutations” (TargeGen, Inc., priority 2005, published 2007).

In assay [1] the target is T1, Abl kinase (Homo sapiens, UniProt P00519).
T1 construct: purchased Invitrogen
Nature of the assay: Abl Kinase Assay (KinaseGlo luminescent detection of residual ATP). The class given is biochemical. In general terms: In Kinase-Glo more light means more ATP remaining.
Method: Kinase activity was assessed using luminescent detection (KinaseGlo, Promega) of residual ATP concentration in reaction mixtures containing optimized levels of kinase, substrate, ATP, compound and appropriate buffers. Kinase, substrate and ATP concentrations were determined per the supplier's recommendations. Briefly, this involved running concentration curves to select for optimal signal.
The reaction mixture (50 μl/well) consisted of Abl kinase (Invitrogen, 20 ng/well); Abltide peptide substrate (Upstate, 100 μM) and ATP (500 nM). Each compound was evaluated at a top concentration of 10 μM with 1:3 dilution steps, 10 dilution steps total. Compound was diluted into DMSO and transferred to the reaction plate, resulting in a final DMSO concentration of 2%. This amount of DMSO was determined not to interfere with the enzyme. The reaction was conducted at 37° C. for 60 minutes. The degree of inhibition was assessed using IC50 determinations, which were obtained using GraphPad Prism4.

Assay [2] has as its target T2, Abl (T315I) (Homo sapiens, UniProt P00519, T315I).
T2 construct: purchased Upstate
Nature of the assay: Abl (T315I) Kinase Assay (KinaseGlo luminescent detection of residual ATP). Format: biochemical. The procedure: The assay was performed similarly to the Abl kinase assay. Abl (T3151) (Upstate, 17 ng/well); Abltide substrate (100 μM) and ATP (5 nM) comprised the reaction mixture. Compound was similarly diluted, and the reaction plate was incubated for 60 minutes at 37° C. IC50's were calculated as for the Abl kinase assay using GraphPad Prism4.

Where [3] appears, read: Abl kinase 20 ng/well, Abltide 100 μM, ATP 500 nM, 60 minutes at 37° C., read-out: Abl IC50.
The mark [4] stands for this setting: Abl (T315I) 17 ng/well, Abltide 100 μM, ATP 5 nM, 60 minutes at 37° C., read-out: Abl (T315I) IC50.

The structures appear in SMILES notation. Counter-ions that a name gives are not always drawn. Like-named read-outs stand apart in the source and are kept apart here.

In the case of `O=S(=O)(c1ccc(Nc2ncc(/C=C/c3ccc(O)cc3)s2)cc1)C1CCNCC1`, the results for the IC50 in assay [1] and in assay [2] were 215 nM and 262 nM, respectively. For `Cc1nc(Nc2ncc(/C=C/c3ccc(Cl)c4[nH]ccc34)s2)cc(N2CCNCC2)n1` [4-{5-[2-(3-Hydroxy-phenyl)-vinyl]-pyrimidine-2-ylamino}-N-piperdin-4-yl-benzenesulfonamide], the results for the IC50 in assay [1] (setting [3]) and in assay [2] (setting [4]) were 70 nM and 50 nM, respectively. For `CN(CCN1CCCC1)S(=O)(=O)c1cccc(Nc2ncc(/C=C/c3ccc(O)cc3)s2)c1` [Compound II, 3-{5-[2-(4-Hydroxy-phenyl)-vinyl]-thiazol-2-ylaminol}-N-methyl-N-(2-pyrrolidin-1-yl-ethyl)-benzenesulfonamide, Hydrochloride], the values for the IC50 in assay [1] and in assay [2] were 393 nM and 827 nM, respectively. In the case of `Cc1nc(Nc2ncc(/C=C/c3ccc(O)cc3)s2)cc(N2CCN(CCO)CC2)n1` [Compound III, 4-[2-(2-{6-[4-(2-Hydroxy-ethyl)-piperazin-1-yl]-2-methyl-pyrimidin-4-yl-amino}-thiazol-5-yl)-vinyl]-phenol], the IC50 (usually the concentration at which inhibition is half-maximal) in assay [1] (setting [3]) came to 26 nM; in assay [2] (setting [4]) it was 66 nM.

For `O=S(=O)(NCCN1CCCC1)c1ccc(Nc2ncc(C=Cc3cc(O)ccc3Cl)s2)cc1` [Compound IV, 4-{5-[2-(2-Chloro-5-hydroxy-phenyl)-vinyl]-thiazol-2-ylamino}-N-(2-pyrrolidin-1-yl-ethyl)-benzenesulfonamide], the IC50 in assay [1] (setting [3]) was 890 nM. For the compound `Oc1cccc(/C=C/c2cnc(Nc3ccc(N4CCNCC4)cc3)s2)c1` [Compound IX, 3-((E)-2-(2-(4-(Piperazin-1-yl)phenylamino)thiazol-5-yl)vinyl)phenol], the results for the IC50 in assay [1] and in assay [2] were 15 nM and 154 nM, respectively. The like results for `OCCN1CCN(c2cccc(Nc3ncc(/C=C/c4ccc5[nH]ccc5c4)s3)c2)CC1` [Compound V, 2-(4-(3-(5-((E)-2-(1H-indol-5-yl)vinyl)thiazol-2-ylamino)phenyl)piperazin-1-yl)ethanol] were, in that order, 174 nM and 1090 nM. On to `O=S(=O)(c1cccc(Nc2ncc(/C=C/c3cccc(O)c3)s2)c1)N1CCNCC1` [Compound VI, 3-(-{2-[3-(Piperazine-1-sulfonyl)-phenylamino]-thiazol-5yl}-vinyl)-phenol], for which the figures for the IC50 in assay [1] and in assay [2] were 129 nM and 2650 nM, respectively. `Cc1nc(Nc2ncc(/C=C\c3cccc(O)c3)s2)cc(N2CCC(O)CC2)n1` [Compound VII, cis-1-(6-{5-[2-(3-Hydroxy-phenyl)-vinyl]-thiazol-2-ylamino}-2-methyl-pyrimidin-4-yl)-piperidin-4-ol]: the IC50 in assay [1] (setting [3]) came to 29 nM; in assay [2] (setting [4]) it was 269 nM.

For the compound `Cc1nc(Nc2ncc(/C=C/c3cccc(O)c3)s2)cc(N2CCC(O)CC2)n1` [Compound VIII, trans-1-(6-{5-[2-(3-Hydroxy-phenyl)-vinyl]-thiazol-2-ylamino}-2-methyl-pyrimidin-4-yl)-piperidin-4-ol], the IC50 in assay [1] (setting [3]) is 24 nM; in assay [2] (setting [4]) it was 208 nM. Take `Oc1cccc(/C=C/c2cnc(Nc3cccc(N4CCNCC4)c3)s2)c1` [Compound X, 3-((E)-2-(2-(3-(Piperazin-1-yl)phenylamino)thiazol-5-yl)vinyl)phenol]: the IC50 worked out at 14 nM in assay [1] and 381 nM in assay [2]. Regarding `O=S(=O)(c1ccc(Nc2ncc(/C=C/c3cccc(O)c3)s2)cc1)N1CCNCC1` [Compound XI, 3-(-{2-[4-(Piperazine-1-sulfonyl)-phenylamino]-thiazol-5yl}-vinyl)-phenol], the IC50 in assay [1] (setting [3]) was found to be 137 nM; in assay [2] (setting [4]) it was 437 nM. The like results for `Oc1ccc(/C=C/c2cnc(Nc3cccc(N4CCNCC4)c3)s2)cc1` [Compound XIV, 4-{2-[2-(3-Piperazin-1-yl-phenylamino)-thiazol-5-yl]-vinyl}-phenol] were, in that order, 24 nM and 51 nM. For the compound `Cc1nc(Nc2ncc(/C=C/c3ccc4nc(N)sc4c3)s2)cc(N2CCNCC2)n1` [Compound XIX, 6-[(E)-2-{2-[(2-Methyl-6-piperazin-1-ylpyrimidin-4-yl)amino]-1,3-thiazol-5-yl}vinyl]-1,3-benzothiazol-2-amine], the IC50 in assay [1] came out at 16 nM; in assay [2], 111 nM. Regarding `Cc1nc(Nc2ncc(/C=C/c3ccc4[nH]ccc4c3)s2)cc(N2CCNCC2)n1` [Compound XV, {5-[2-(1H-Indol-5-yl)-vinyl]-thiazol-2-yl}-(2-methyl-6-piperazin-1-yl-pyrimidin-4-yl)-amine], the IC50 in assay [1] (setting [3]) was determined as 54 nM; in assay [2] (setting [4]) it was 343 nM.

For the compound `Cc1nc(Nc2ncc(/C=C/c3cccc4[nH]ncc34)s2)cc(N2CCNCC2)n1` [Compound XVI, {5-[2-(1H-Indazol-4-yl)-vinyl]-thiazol-2-yl}-(2-methyl-6-piperazin-1-yl-pyrimidin-4-yl)-amine], the IC50 in assay [1] (setting [3]) was determined as 20 nM; in assay [2] (setting [4]), 328 nM. On to `Oc1cccc(/C=C/c2cnc(Nc3cc(N4CCNCC4)ncn3)s2)c1` [Compound XVII, 3-{2-[2-(6-Piperazin-1-yl-pyrimidin-4-ylamino)-thiazol-5-yl]-vinyl}-phenol], for which the IC50 stood at 4.4 nM in assay [1] (setting [3]) and 35 nM in assay [2] (setting [4]). For `Cc1nc(Nc2ncc(/C=C/c3cccc(O)c3)s2)cc(N2CCCNCC2)n1` [Compound XVIII, 3-{2-[2-(6-[1,4]Diazepan-1-yl-2-methyl-pyrimidin-4-ylamino)-thiazol-5-yl]-vinyl}-phenol], the figures for the IC50 in assay [1] (setting [3]) and in assay [2] (setting [4]) were 2.7 nM and 31 nM, respectively. `Cc1nc(Nc2ncc(/C=C/c3cccc(O)c3)s2)cc(N2CCNCC2)n1` [Compound XX, (E)-3-(2-(2-(2-Methyl-6-(piperazin-1-yl)pyrimidin-4-ylamino)thiazol-5-yl)vinyl)phenol hydrochloride]: the results for the IC50 in assay [1] and in assay [2] were 1.5 nM and 18 nM, respectively. As to `COc1cccc(/C=C/c2cnc(Nc3cc(N4CCNCC4)nc(C)n3)s2)c1` [Compound XXI, (E)-5-(3-Methoxystyryl)-N-(2-methyl-6-(piperazin-1-yl)pyrimidin-4-yl)thiazol-2-amine hydrochloride], the IC50 in assay [1] was 224 nM; in assay [2], 605 nM. For `Oc1ccc(/C=C/c2cnc(Nc3cccc(OCCN4CCCC4)c3)s2)cc1` [Compound XXII, 4-(2-{2-[3-(2-Pyrrolidin-1-yl-ethoxy)-phenylamino]-thiazol-5-yl}-vinyl)-phenol], the IC50 in assay [1] was 161 nM; in assay [2] it was 272 nM. On to `O=C(Nc1ccc(/C=C/c2cnc(Nc3cccc(N4CCNCC4)c3)s2)cc1)c1cccc(C(F)(F)F)c1` [Compound XXIII, N-(4-{2-[2-(3-Piperazin-1-yl-phenylamino)-thiazol-5-yl]-vinyl}-phenyl)-3-trifluoromethyl-benzamide], for which the 50% inhibitory concentration (IC50) amounted to 307 nM in assay [1] (setting [3]) and 7140 nM in assay [2] (setting [4]).

On to `Cc1nc(Nc2ncc(/C=C/c3ccc4[nH]ncc4c3)s2)cc(N2CCNCC2)n1` [Compound XXIV, {5-[2-(1H-Indazol-5-yl)-vinyl]-thiazol-2-yl}-(2-methyl-6-piperazin-1-yl-pyrimidin-4-yl)-amine], for which the values for the IC50 in assay [1] (setting [3]) and in assay [2] (setting [4]) were 16 nM and 350 nM, respectively.
